This is an account of results in ChEMBL document CHEMBL5236646, “Design, synthesis, and biological evaluation of BRD4 degraders” (Bioorg Med Chem, 2023).

Assay [1] has as its target T1, Protein cereblon/Bromodomain-containing protein 4 (Homo sapiens) (UniProt O60885+Q96SW2). Nature of the assay: Protac activity at CRBN/BRD4 in human MM1.S cells assessed as induction of BRD4 protein degradation by measuring residual activity at 300 nM measured after 9 hrs by Western blot analysis (reference value: 317%). It counts as cell-based. A general note: In western blotting, separated proteins are transferred to a membrane and probed.

In assay [2] the test system is MM1.S. Nature of the assay: Antiproliferative activity against human MM1.S cells assessed as inhibition of cell growth incubated for 72 hrs MTS assay. It counts as functional, cell-based. Background: Formazan colour is commonly taken as a measure of viable cells.
The target in assay [3] is T1, Protein cereblon/Bromodomain-containing protein 4 (Homo sapiens). As to the kind of experiment: Protac activity at CRBN/BRD4 in human MV4-11 cells assessed as induction of BRD4 protein degradation by measuring residual activity at 30 nM measured after 3 hrs by Western blot analysis (reference value: 100%). It counts as cell-based.
Assay [4] shares this target. Nature of the assay: Protac activity at CRBN/BRD4 in human MM1.S cells assessed as induction of BRD4 protein degradation by measuring residual activity at 300 nM measured immediately by Western blot analysis (reference value: 317%). It counts as cell-based.
The target is the same in assay [5]. Nature of the assay: Protac activity at CRBN/BRD4 in human MV4-11 cells assessed as induction of BRD4 protein degradation by measuring residual activity at 1 nM measured after 6 hrs by Western blot analysis (reference value: 100%). It counts as cell-based.
Assay [6] shares this target. As to the kind of experiment: Protac activity at CRBN/BRD4 in human MM1.S cells assessed as induction of BRD4 protein degradation by measuring residual activity at 300 nM preincubated with tert-butyl (S)-2-(4-(4-chlorophenyl)-2,3,9-trimethyl-6H-thieno[3,2-f][1,2,4]triazolo[4,3-a][1,4]diazepin-6-yl)acetate for 2 hrs followed by compound addition and measured after 6 hrs by Western blot analysis (reference value: 100%). It counts as cell-based.

Assay [7] has the same target. Nature of the assay: Protac activity at CRBN/BRD4 in human MV4-11 cells assessed as induction of BRD4 protein degradation by measuring residual activity at 30 nM preincubated with lenalidomide for 2 hrs followed by compound addition and measured after 6 hrs by Western blot analysis (reference value: 100%). It counts as cell-based.
Assay [8] can be described thus: Inhibition of TGF-beta induced activation of human MRC5 cells assessed as residual BRD4 protein level at 0.1 uM by Western blot analysis (reference value: 96%). It counts as functional.
Assay [9] can be described thus: Inhibition of TGF-beta induced activation of human MRC5 cells assessed as residual BRD4 protein level at 0.5 uM by Western blot analysis (reference value: 96%). It counts as functional.
Assay [10] is described as follows: Inhibition of TGF-beta induced activation of human MRC5 cells assessed as residual BRD4 protein level at 1 uM by Western blot analysis (reference value: 96%). It counts as functional.
Assay [11] can be described thus: Inhibition of TGF-beta induced activation of human MRC5 cells assessed as residual BRD4 protein level at 5 uM by Western blot analysis (reference value: 96%). It counts as functional.
Assay [12] deals with MRC5. As to the kind of experiment: Inhibition of TGF-beta induced activation of human MRC5 cells assessed as downregulation of alpha-SMA protein expression at 0.1 to 10 uM by Western blot analysis. It counts as functional, cell-based. To be noted: dose 0.1-10 µM.

SMILES strings stand for the structures. Active and inactive are the calls of the source. The rule behind the calls is not given here.

For orientation: IC50 means the concentration that inhibits the measured activity by half.

T1 sequence (Q96SW2 whole entry, looked up, other chains not shown): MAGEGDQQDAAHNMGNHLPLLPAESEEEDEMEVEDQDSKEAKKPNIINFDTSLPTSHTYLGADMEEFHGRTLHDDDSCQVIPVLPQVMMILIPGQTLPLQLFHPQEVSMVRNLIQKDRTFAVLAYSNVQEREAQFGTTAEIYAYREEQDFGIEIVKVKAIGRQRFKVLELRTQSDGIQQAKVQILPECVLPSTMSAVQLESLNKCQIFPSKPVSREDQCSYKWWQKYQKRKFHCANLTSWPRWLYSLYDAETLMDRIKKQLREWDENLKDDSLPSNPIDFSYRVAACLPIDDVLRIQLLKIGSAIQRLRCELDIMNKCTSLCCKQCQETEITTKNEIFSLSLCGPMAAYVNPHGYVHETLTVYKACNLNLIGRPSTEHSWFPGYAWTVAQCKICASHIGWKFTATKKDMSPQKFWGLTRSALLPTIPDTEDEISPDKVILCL

`Cc1sc2c(c1C)C(c1ccc(Cl)cc1)=N[C@@H](CC(=O)NCCCCC(=O)NCCNc1cccc3c1C(=O)N(C1CCC(=O)NC1=O)C3=O)c1nnc(C)n1-2` (some centres not stated): the Activity in [1] was found to be 50%; in [3] it was 72%; in assay [4] it was 362%; in assay [5] it was 107%; in assay [6], 61%; in assay [7], 85%. Further, the Activity in [8] was found to be 31%; in assay [9], 26%; in assay [10], 40%; in [11] it was 33%. Moreover, the IC50 in [2] amounted to 27 nM. Besides, in assay [12], the inhibition result is “Active”.
